Broadly, the AC50 is the concentration giving half of the maximal activity seen. The low end stands for greater potency, the high end for weaker potency.

We go through 25 compounds from article PMC12155096 (International Journal of Molecular Sciences, 2025).

Targets include CYP3A4 (Homo sapiens, UniProt P08684); human CYP2D6 (Homo sapiens, UniProt P10635); human CYP2C19 (Homo sapiens, UniProt P33261); human CYP2C9 (Homo sapiens, UniProt P11712).
Another data set has as its target T1, human CYP1A2 (Homo sapiens, UniProt P05177).
T1 sequence (P05177 1-516): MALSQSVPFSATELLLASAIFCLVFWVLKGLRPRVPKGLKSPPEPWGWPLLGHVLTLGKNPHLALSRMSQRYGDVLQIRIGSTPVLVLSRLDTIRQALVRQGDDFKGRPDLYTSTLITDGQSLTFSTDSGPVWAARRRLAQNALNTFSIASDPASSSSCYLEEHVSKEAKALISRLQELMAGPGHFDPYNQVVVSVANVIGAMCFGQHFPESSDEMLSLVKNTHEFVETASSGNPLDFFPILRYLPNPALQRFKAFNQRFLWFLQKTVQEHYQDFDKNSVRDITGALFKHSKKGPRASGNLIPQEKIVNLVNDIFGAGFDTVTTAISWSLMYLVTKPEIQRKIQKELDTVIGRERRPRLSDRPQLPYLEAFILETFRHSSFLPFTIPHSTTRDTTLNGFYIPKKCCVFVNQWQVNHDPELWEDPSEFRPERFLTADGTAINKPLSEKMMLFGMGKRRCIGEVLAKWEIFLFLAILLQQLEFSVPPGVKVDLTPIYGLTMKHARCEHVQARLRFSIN

SMILES strings stand for the structures. Counter-ions that a name gives are not always drawn.

Chain of human CYP2C19 (P33261 whole entry): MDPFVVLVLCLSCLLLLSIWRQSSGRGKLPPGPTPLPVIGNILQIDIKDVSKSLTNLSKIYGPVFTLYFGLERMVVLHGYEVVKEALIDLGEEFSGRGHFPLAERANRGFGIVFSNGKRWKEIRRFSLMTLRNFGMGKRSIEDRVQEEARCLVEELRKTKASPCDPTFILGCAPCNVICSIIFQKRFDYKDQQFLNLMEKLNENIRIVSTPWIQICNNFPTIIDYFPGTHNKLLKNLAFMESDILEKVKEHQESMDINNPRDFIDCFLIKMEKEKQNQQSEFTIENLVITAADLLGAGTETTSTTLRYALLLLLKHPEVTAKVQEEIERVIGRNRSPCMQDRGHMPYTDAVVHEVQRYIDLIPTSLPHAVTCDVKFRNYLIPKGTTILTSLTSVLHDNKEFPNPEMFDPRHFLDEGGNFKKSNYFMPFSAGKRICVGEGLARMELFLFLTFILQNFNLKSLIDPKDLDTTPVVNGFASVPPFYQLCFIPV
Chain of human CYP2D6 (P10635 whole entry): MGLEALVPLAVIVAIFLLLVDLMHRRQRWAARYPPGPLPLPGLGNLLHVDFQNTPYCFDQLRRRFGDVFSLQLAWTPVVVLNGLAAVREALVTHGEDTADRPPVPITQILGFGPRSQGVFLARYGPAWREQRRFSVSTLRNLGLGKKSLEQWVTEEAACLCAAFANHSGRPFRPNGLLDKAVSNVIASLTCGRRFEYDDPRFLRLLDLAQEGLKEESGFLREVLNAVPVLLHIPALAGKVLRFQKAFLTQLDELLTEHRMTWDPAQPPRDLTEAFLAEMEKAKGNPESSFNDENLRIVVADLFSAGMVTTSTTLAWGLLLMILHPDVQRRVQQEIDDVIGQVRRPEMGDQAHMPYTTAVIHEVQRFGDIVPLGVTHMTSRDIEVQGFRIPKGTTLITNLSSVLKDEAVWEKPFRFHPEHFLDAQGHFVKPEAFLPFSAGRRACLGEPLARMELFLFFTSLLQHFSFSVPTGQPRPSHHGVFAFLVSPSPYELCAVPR
Chain of human CYP2C9 (P11712 whole entry): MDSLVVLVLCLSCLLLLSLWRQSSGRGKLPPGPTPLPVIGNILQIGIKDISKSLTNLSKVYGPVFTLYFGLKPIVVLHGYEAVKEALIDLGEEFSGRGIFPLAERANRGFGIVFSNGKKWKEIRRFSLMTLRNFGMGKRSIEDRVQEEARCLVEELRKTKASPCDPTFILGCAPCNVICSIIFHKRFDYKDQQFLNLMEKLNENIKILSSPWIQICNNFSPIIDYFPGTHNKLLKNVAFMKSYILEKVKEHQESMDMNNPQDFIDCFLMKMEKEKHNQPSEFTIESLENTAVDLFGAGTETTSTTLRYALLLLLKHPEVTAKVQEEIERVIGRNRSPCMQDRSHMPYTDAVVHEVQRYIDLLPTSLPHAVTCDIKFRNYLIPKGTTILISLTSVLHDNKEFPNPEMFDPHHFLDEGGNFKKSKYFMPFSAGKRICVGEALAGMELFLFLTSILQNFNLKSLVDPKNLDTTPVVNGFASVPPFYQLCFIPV
Chain of CYP3A4 (P08684 whole entry): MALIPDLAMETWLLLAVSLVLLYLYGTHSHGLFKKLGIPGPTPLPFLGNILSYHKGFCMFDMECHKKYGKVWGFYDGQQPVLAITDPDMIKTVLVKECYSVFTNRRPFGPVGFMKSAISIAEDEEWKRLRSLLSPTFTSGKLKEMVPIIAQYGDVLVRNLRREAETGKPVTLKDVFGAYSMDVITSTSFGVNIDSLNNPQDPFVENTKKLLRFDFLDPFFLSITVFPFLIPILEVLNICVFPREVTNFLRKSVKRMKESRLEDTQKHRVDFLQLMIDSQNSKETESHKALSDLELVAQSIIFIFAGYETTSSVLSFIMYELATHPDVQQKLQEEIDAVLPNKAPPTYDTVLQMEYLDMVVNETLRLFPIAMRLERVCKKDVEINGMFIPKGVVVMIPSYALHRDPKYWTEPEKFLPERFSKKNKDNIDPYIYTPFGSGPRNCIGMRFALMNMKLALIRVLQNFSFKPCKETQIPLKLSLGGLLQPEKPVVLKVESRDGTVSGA

The compound `O=C1OC(=O)c2cc(Oc3ccc4c(c3)C(=O)OC4=O)ccc21` [5,5'-Oxybis(2-benzofuran-1,3-dione)] came in with an AC50 on CYP3A4 of 30.8 µM. Moreover, the “CYP2D6 AC50 (half-maximal activity concentration)” value (shortened to “CYP2D6 AC50”) at human CYP2D6 is reported as “Inactive”. The “CYP2C19 AC50 (half-maximal activity concentration)” value (shortened to “CYP2C19 AC50”) at human CYP2C19 is listed as “Inconclusive inhibitor”. In addition, on human CYP1A2, the “CYP1A2 AC50 (half-maximal activity concentration)” value (from here on “CYP1A2 AC50”) is reported as “Inactive”. In addition, the “CYP2C9 AC50 (half-maximal activity concentration)” value (shortened to “CYP2C9 AC50”) at human CYP2C9 was “Inactive”.
In the case of `CCc1cnc(C(=O)O)c(C(=O)O)c1` [5-Ethyl-2,3-pyridinedicarboxylic acid], the AC50 on CYP3A4 came out at 20.6 µM. Besides, the “CYP2D6 AC50” value on human CYP2D6 is listed as “Inconclusive inhibitor”. Besides, the “CYP2C19 AC50” value on human CYP2C19 is given as “Inactive”. Moreover, on human CYP1A2, the “CYP1A2 AC50” value was “Inactive”. In addition, on human CYP2C9, the “CYP2C9 AC50” value was “Inactive”.
`Cc1ccc([N+](=O)[O-])c(N)c1` [5-Methyl-2-nitroaniline]: the AC50 at CYP3A4 came to 13.9 µM; on human CYP2C19, 39.6 µM; at human CYP1A2, 19.2 µM; on human CYP2C9, 49.9 µM. The “CYP2D6 AC50” value at human CYP2D6 is recorded as “Inactive”.
`O=C(O)c1cc(C(=O)O)cc([N+](=O)[O-])c1` [5-Nitroisophthalic acid] gave an AC50 at CYP3A4 of 5.59 µM. Moreover, at human CYP2D6, the “CYP2D6 AC50” value is given as “Inactive”. Also, the “CYP2C19 AC50” value on human CYP2C19 is reported as “Inconclusive activator”. For the same compound, the “CYP1A2 AC50” value at human CYP1A2 is on record as “Inconclusive inhibitor”. Also, the “CYP2C9 AC50” value on human CYP2C9 is “Inactive”.
With `CC(C)c1ccc2ncccc2c1` [6-(1-Methylethyl)quinoline], the AC50 on CYP3A4 was determined as 35 µM; at human CYP1A2, 46.2 µM. For the same compound, at human CYP2D6, the “CYP2D6 AC50” value is “Inactive”. Also, on human CYP2C19, the “CYP2C19 AC50” value is given as “Inactive”. Also, the “CYP2C9 AC50” value on human CYP2C9 was “Inactive”.
As for `CCN(CC)c1ccc2c(C)cc(=O)oc2c1` [7-Diethylamino-4-methylcoumarin], the AC50 on CYP3A4 stood at 32.4 µM; at human CYP2D6, 58.5 µM; on human CYP2C19, 36 µM; on human CYP1A2, 1.9 µM; at human CYP2C9, 4.6 µM.
On to `N#CCc1ccc(Cl)cc1Cl` [(2,4-Dichlorophenyl)acetonitrile], for which the AC50 came out at 13.3 µM at CYP3A4, 50.4 µM on human CYP2C19 and 23.4 µM on human CYP1A2. The “CYP2D6 AC50” value on human CYP2D6 was “Inactive”. Also, on human CYP2C9, the “CYP2C9 AC50” value is listed as “Inactive”.
With `CCCCCC[C@@H](CCC)C(=O)O` [(2R)-2-Propyloctanoic acid], the AC50 at CYP3A4 came out at 31 µM; at human CYP2C9, 34.7 µM. At human CYP2D6, the “CYP2D6 AC50” value is recorded as “Inactive”. The “CYP2C19 AC50” value at human CYP2C19 was “Inconclusive activator”. The “CYP1A2 AC50” value on human CYP1A2 is “Inactive”.
Turning to `CCOC(=O)CC(CC(=O)OCC)(OC(C)=O)C(=O)OCC` [Acetyltriethyl citrate], the concentration at half-maximal activity (AC50) on CYP3A4 is 43.5 µM; on human CYP2C19, 18.1 µM; on human CYP2C9, 30.6 µM. At human CYP2D6, the “CYP2D6 AC50” value was “Inactive”. Further, the “CYP1A2 AC50” value on human CYP1A2 is reported as “Inconclusive inhibitor”.
Regarding `CCCCCCCCCCCCCCCCC(C(=O)O)C(O)(CC(=O)O)C(=O)O` (centres unmarked) [Agaric acid], at CYP3A4, the AC50 was found to be 32.4 µM. For the same compound, the “CYP2D6 AC50” value on human CYP2D6 is listed as “Inconclusive inhibitor”. Further, on human CYP2C19, the “CYP2C19 AC50” value is reported as “Inconclusive activator”. Also, on human CYP1A2, the “CYP1A2 AC50” value was “Inactive”. Besides, the “CYP2C9 AC50” value on human CYP2C9 is reported as “Inactive”.
Turning to `CC1(C)[C@@H](O[C@H]2O[C@H](C(=O)O)[C@@H](O)[C@H](O)[C@H]2O[C@@H]2O[C@H](C(=O)O)[C@@H](O)[C@H](O)[C@H]2O)CC[C@]2(C)[C@H]3C(=O)C=C4[C@@H]5C[C@@](C)(C(=O)O)CC[C@]5(C)CC[C@@]4(C)[C@]3(C)CC[C@@H]12.N.O.O.O` [Ammonium glycyrrhizinate trihydrate], on CYP3A4, half-maximal activity (AC50) was put at 23.5 µM. For the same compound, at human CYP2D6, the “CYP2D6 AC50” value is reported as “Inactive”. The “CYP2C19 AC50” value at human CYP2C19 was “Inconclusive inhibitor”. For the same compound, the “CYP1A2 AC50” value on human CYP1A2 was “Inconclusive inhibitor”. Besides, the “CYP2C9 AC50” value at human CYP2C9 was “Inactive”.
`C[As+](C)(C)CC(=O)[O-]` [Arsenobetaine]: at CYP3A4, the activity was half-maximal at 47.7 µM (AC50). Further, the “CYP2D6 AC50” value on human CYP2D6 is “Inactive”. Further, the “CYP2C19 AC50” value on human CYP2C19 is “Inactive”. Further, the “CYP1A2 AC50” value on human CYP1A2 is on record as “Inactive”. Further, on human CYP2C9, the “CYP2C9 AC50” value is listed as “Inactive”.
`CCCCC(CC)C(=O)[O-].CCCCC(CC)C(=O)[O-].[Ba+2]` (centres unmarked) [Barium bis(2-ethylhexanoate)]: the activity on CYP3A4 was half-maximal at 38.5 µM (AC50). In addition, the “CYP2D6 AC50” value on human CYP2D6 is recorded as “Inactive”. Moreover, the “CYP2C19 AC50” value at human CYP2C19 is “Inactive”. The “CYP1A2 AC50” value at human CYP1A2 is reported as “Inactive”. At human CYP2C9, the “CYP2C9 AC50” value is recorded as “Inactive”.
In the case of `CC(=O)OC(C(=O)c1ccccc1)c1ccccc1` (centres unmarked) [Benzoin acetate], the AC50 on CYP3A4 worked out at 34.5 µM; at human CYP2D6, 59.5 µM; at human CYP2C19, 10.1 µM; at human CYP1A2, 46.5 µM; on human CYP2C9, 33.2 µM.
Taken in the same sequence, the figures for `O=C(Cc1ccccc1)OCc1ccccc1` [Benzyl phenylacetate] were 11.5 µM, 66.3 µM, 13.5 µM, 12.7 µM and 35.8 µM.
Take `C/C=C(\C)C(=O)OCc1ccccc1` [Benzyl tiglate]: the AC50 at CYP3A4 came to 39 µM; on human CYP1A2, 37 µM. In addition, the “CYP2D6 AC50” value at human CYP2D6 is “Inactive”. Moreover, on human CYP2C19, the “CYP2C19 AC50” value is “Inconclusive inhibitor”. For the same compound, the “CYP2C9 AC50” value on human CYP2C9 was “Inactive”.
Take `C=C(C)C(=O)OCC(O)COc1ccc(C(C)(C)c2ccc(OCC(O)COC(=O)C(=C)C)cc2)cc1` (centres unmarked) [Bisphenol A glycidyl methacrylate]: the AC50 came out at 3.3 µM at CYP3A4; 37 µM at human CYP2D6; 7.59 µM at human CYP2C19; 63.5 µM on human CYP1A2; 3.46 µM on human CYP2C9.
As for `CC(c1ccc(O)cc1)c1ccc(O)cc1` [Bisphenol E], at CYP3A4, the “CYP3A4 AC50 (half-maximal activity concentration)” value is reported as “Inconclusive inhibitor”. Besides, on human CYP2D6, the “CYP2D6 AC50” value is “Inactive”. Further, the AC50 at human CYP2C19 was 33.5 µM; at human CYP2C9, 38.6 µM. Further, at human CYP1A2, the “CYP1A2 AC50” value was “Inactive”.
In the case of `CCC(=O)O[C@@H]1C=C2CC[C@@H]3[C@H](CC[C@]4(C)[C@@H](OC(=O)CC)CC[C@@H]34)C2CC1` (some centres unmarked) [Bolandiol dipropionate], the AC50 at CYP3A4 was determined as 10.6 µM; at human CYP2C9, 15.5 µM. At human CYP2D6, the “CYP2D6 AC50” value is reported as “Inactive”. For the same compound, on human CYP2C19, the “CYP2C19 AC50” value is on record as “Inactive”. The “CYP1A2 AC50” value at human CYP1A2 is reported as “Inconclusive inhibitor”.
`CCOP(=S)(OCC)Oc1cc(Cl)c(Br)cc1Cl` [Bromophos-ethyl]: the “CYP3A4 Efficacy (in parenthesis)” value at CYP3A4 is recorded as 1.97 ± 0.48 (-79 ± 2) %. In addition, the “CYP2D6 IC50 (half-maximal inhibitory concentration)” value at human CYP2D6 was “Inactive”. Further, the “CYP2C19 Efficacy (in parenthesis)” value on human CYP2C19 (human) is given as 0.71 ± 0.08 (-121 ± 12) %. For the same compound, on human CYP1A2 (human), the “CYP1A2 Efficacy (in parenthesis)” value is given as 3.3 ± 0.22 (-98 ± 3) %. In addition, the “CYP2C9 Efficacy (in parenthesis)” value on human CYP2C9 (human) is listed as 2.36 ± 0.42 (-102 ± 2) %.
With `O=[N+]([O-])c1ccc(Nc2ccc(Nc3ccccc3)c(S(=O)(=O)[O-])c2)c([N+](=O)[O-])c1.[Na+]` [C.I. Acid Orange 3], the results for the AC50 on CYP3A4 and at human CYP2C9 were 62.6 µM and 34.3 µM, respectively. Besides, the “CYP2D6 AC50” value on human CYP2D6 is “Inactive”. Further, at human CYP2C19, the “CYP2C19 AC50” value is “Inconclusive inhibitor”. Also, the “CYP1A2 AC50” value at human CYP1A2 was “Inactive”.
Regarding `N.N.O=C([O-])C1(C(=O)[O-])CCC1.[Pt+2]` [Carboplatin], the AC50 came out at 31.3 µM at CYP3A4; 28.7 µM on human CYP2D6; 17.7 µM on human CYP2C19; 15.6 µM on human CYP1A2; 9.46 µM at human CYP2C9.
Turning to `CC(=O)[O-].CC(=O)[O-].CC(=O)[O-].[Cr+3]` [Chromium(III) acetate], the AC50 at CYP3A4 was 69.6 µM; at human CYP2C9, 96.3 µM. Further, the “CYP2D6 AC50” value at human CYP2D6 is “Inactive”. For the same compound, the “CYP2C19 AC50” value at human CYP2C19 was “Inactive”. Moreover, the “CYP1A2 AC50” value on human CYP1A2 is “Inactive”.
Regarding `CCOC(=O)COc1ccc2c(C)c(CCN(CC)CC)c(=O)oc2c1Cl.Cl` [Cloricromen hydrochloride], the values for the AC50 at CYP3A4 and at human CYP2D6 were 16.8 µM and 18.2 µM, respectively. For the same compound, the “CYP2C19 AC50” value on human CYP2C19 is on record as “Inactive”. Further, on human CYP1A2, the “CYP1A2 AC50” value was “Inconclusive inhibitor”. At human CYP2C9, the “CYP2C9 AC50” value was “Inactive”.
Turning to `O=C(O)C1(C(=O)Nc2ccc(Cl)cc2Cl)CC1` [Cyclanilide], the AC50 was determined as 55.5 µM on CYP3A4, 66.8 µM on human CYP2D6, 60.6 µM on human CYP1A2 and 18.7 µM on human CYP2C9. The “CYP2C19 AC50” value on human CYP2C19 is reported as “Inconclusive inhibitor”.
